Where two headings read alike, the source gives them in different places. *1 amine or outer side, *2 acyl side, *3 side chain or, on linkers, in order; H or OH if unused. Where a SMILES comes first, the peptide text is derived from it. Bridges are numbered along the chain shown (N, C = ends). [ ]: non-standard residue; d: D form. Oic = O=C(O)[C@@H]1C[C@@H]2CCCC[C@@H]2N1; X5 = NCCC[C@H](N[*:1])C(=O)NC(=O)[*:2]; Arg(Me) = CNC(=N)NCCC[C@H](N)C(=O)O; tBuAla = CC(C)(C)C[C@H](N)C(=O)O; Pen = CC(C)(S)[C@H](N)C(=O)O; Dap = NC[C@H](N)C(=O)O; Ahx = NCCCCCC(=O)O
What was measured:
rat MASP1 = rat MASP1 (Rattus norvegicus (Rat), UniProt Q8CHN8); assay: Biochemical rat MASP1 assay (FRET substrate); conditions: Average IC50; recombinant rat MASP1; read-out: rat MASP1 IC50
From the text: A truncated cDNA sequence of rat MASP1encoding the fragment corresponding to the amino acids 302-704 with a C-terminal His Tag and N-terminal Ig-kappa secretion signal (SEQ ID No: 4) was subcloned into the mammalian expression vector pcDNA3.1 (Invitrogen).
(§1) The MASP1 or MASP2 expression vectors were transfected into the HEK293 (ATCC No. CRL-1573) cell line using Lipofectamine LTX® Reagent (Thermo-Fischer), as described by the manufacturer. The mature form of the recombinant rat MASP1 and MASP2 proteases were secreted into the culture medium. The MASP1 and MASP2 proteins were purified from the conditioned media by affinity chromatography on Ni-NTA Superflow resin (Qiagen) as described by the manufacturer.
4.2 Biochemical Rat MASP1 Assay.
Recombinant rat MASP1 enzyme produced in the HEK 293 cells was diluted in the reaction buffer (50 mM HEPES pH 8,0; 100 mM NaCl; 0,01% CHAPS; 0.5 mM Gluthathione) to the concentration of 4 nM and 25 μl was transferred into each single well of 384-well white microtiter plate (Greiner Bio One 781075). 1 μl of the inhibitor compound solution (dissolved in DMSO, at the corresponding concentration) or pure DMSO as a control was added to the same wells. The enzymatic reaction was initiated by addition of 25 μl of 40 μM solution of the FRET substrate Dabcyl-[…]-Glu(Edans)-NH2; (Dabcyl-4-((4-(dimethylamino)phenyl)azo)benzoic acid; Edans-5-[(2-Aminoethyl) amino]naphthalene-1-sulfonyl; custom synthesis by Jerini Peptide Technologies, Berlin) in the reaction buffer. The microtiter plate was incubated for 60-120 min at the temperature of 32 C. The increase of fluorescence intensity was measured in appropriate fluorescence plate reader (e.g. TECAN Ultra) using excitation wavelength of 340 nm and emission wavelength of 490 nm. IC50 values were calculated from percentage of inhibition of rat […] activity as a function of test compound concentration.

rat MASP2 = rat MASP2 (Rattus norvegicus (Rat), UniProt Q9JJS8); assay: Biochemical rat MASP2 assay (FRET substrate); conditions: Average IC50; recombinant rat MASP2; read-out: rat MASP2 IC50
From the text: as §1, with “The mature form of the recombinant rat MASP1 and MASP2 proteases were secreted into the culture medium.” left out, “M[…]” for “MASP2 proteins”

human MASP1 = human MASP1 (Homo sapiens (Human), UniProt P48740); assay: Biochemical human MASP1 assay (FRET substrate); conditions: Average IC50; recombinant human MASP1; read-out: human MASP1 IC50
How it was run: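 IC50 derived from % inhibition versus compound concentration, with fluorescence increase read at 320/420 nm after 60-120 min at 32 C. Enzyme: HEK293-secreted, His-tagged human MASP1 fragment 297-699 at 20 nM in HEPES pH 8,0 buffer with NaCl, CHAPS, glutathione; substrate ABZ-peptide-Lys(Dnp)-NH2 added as 20 μM solution.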

human MASP2 = human MASP2 (Homo sapiens (Human), UniProt O00187); assay: Biochemical human MASP2 assay (FRET substrate); conditions: Average IC50; recombinant human MASP2; read-out: human MASP2 IC50
How it was run: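 IC50 came from % inhibition across compound concentrations, with fluorescence (ex 340 nm, em 490 nm) read after 60-120 min at 32 C. Substrate was a DABCYL FRET peptide, added as a 60 μM solution, cleaved by HEK293-expressed, Ni-NTA-purified mature recombinant human MASP2.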

[1] = test system: Human C3-DEPOSITION SERUM; assay: C3 deposition assay, human serum on mannan-coated plates; format: biochemical
Procedure: 3. C3 Deposition Assay (Human, Rat, Mouse, Dog, Pig))
The C3 deposition assay was conducted essentially as described (reference). Multiwell plates (Greiner-Nunc 384 Maxi Sorp #464718) were coated over night with Mannan from Saccharomyces cerevisiae (Sigma M7504, 10 μg/mL in 0.05 M carbonate-bicarbonate buffer, pH 9.6) at 4° C. Wells were washed three times with TBS and subsequently incubated for 2 hours with 50 μL of 1% bovine serum albumin (BSA) in Tris-buffered saline (TBS) at 37° C. in order to block non-specific binding. After this step and each of the following incubation steps wells were washed three times with C3 wash buffer (TBS; 0.05% Tween 20; 5 mM CaCl2). […] When appropriately developed the color reaction was stopped by addition of 25 μL of stop solution (Sigma S5814) and quantified on a photometer by measuring absorption at a wavelength of 450 nm. Antibodies were diluted in C3 wash buffer supplemented with 0.5% BSA.

[2] = Average IC50, read-out: Human C3-DEPOSITION SERUM IC50

Chain of human MASP2 (O00187 other isoform, or with tags, fused parts or gaps): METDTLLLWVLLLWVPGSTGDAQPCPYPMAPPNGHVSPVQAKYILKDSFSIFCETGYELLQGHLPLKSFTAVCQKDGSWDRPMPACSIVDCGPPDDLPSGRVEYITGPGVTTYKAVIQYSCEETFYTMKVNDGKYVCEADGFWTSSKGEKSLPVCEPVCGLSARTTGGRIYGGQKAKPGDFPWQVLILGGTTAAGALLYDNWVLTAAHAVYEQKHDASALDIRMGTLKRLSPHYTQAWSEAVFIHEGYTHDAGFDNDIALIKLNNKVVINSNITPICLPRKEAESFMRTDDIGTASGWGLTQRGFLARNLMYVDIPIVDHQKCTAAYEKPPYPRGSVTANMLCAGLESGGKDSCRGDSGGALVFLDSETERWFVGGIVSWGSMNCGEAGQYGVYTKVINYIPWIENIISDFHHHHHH
Chain of rat MASP1 (Q8CHN8 other isoform, or with tags, fused parts or gaps): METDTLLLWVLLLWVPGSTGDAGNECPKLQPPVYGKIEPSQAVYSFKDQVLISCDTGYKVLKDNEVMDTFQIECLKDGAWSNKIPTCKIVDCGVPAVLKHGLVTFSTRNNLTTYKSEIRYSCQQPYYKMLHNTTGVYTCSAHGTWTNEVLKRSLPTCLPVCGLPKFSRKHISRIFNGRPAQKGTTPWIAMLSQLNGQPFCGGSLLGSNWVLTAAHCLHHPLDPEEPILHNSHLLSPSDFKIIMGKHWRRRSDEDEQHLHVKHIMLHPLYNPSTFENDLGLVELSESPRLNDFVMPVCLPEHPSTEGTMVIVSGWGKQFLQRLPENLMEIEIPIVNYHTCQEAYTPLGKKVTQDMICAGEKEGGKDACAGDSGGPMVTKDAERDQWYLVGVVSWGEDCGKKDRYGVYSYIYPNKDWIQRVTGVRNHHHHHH
Chain of human MASP1 (P48740 other isoform, or with tags, fused parts or gaps): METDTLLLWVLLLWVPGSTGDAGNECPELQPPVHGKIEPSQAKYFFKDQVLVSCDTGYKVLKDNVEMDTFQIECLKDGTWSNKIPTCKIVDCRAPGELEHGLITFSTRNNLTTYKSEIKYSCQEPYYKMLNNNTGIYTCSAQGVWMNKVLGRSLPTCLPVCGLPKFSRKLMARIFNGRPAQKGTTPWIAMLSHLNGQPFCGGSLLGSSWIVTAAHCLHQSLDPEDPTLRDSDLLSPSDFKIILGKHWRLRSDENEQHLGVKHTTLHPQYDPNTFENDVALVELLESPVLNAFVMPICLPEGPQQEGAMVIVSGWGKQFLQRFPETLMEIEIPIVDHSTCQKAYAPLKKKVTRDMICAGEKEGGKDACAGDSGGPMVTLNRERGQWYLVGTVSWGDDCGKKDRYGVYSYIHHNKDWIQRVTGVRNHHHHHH
Chain of rat MASP2 (Q9JJS8 other isoform, or with tags, fused parts or gaps): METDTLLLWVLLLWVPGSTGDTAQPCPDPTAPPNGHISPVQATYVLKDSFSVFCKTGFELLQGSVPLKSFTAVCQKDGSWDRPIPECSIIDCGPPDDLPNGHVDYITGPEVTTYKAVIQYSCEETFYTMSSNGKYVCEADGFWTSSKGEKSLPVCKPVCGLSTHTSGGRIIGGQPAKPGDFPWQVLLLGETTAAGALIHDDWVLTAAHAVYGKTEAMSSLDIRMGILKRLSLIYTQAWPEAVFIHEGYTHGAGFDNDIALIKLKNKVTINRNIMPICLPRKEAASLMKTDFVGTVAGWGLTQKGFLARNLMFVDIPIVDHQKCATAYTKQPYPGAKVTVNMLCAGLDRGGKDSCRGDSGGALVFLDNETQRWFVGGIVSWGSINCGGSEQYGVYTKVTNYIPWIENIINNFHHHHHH

SMILES | IC50 (rat MASP1) [nM] | IC50 (rat MASP2) [nM] | IC50 (human MASP1) [nM] | IC50 (human MASP2) [nM] | IC50 [1, 2] [nM] | IC50 ([1]; Average IC50, read-out: Human C3-[…] IC50) [nM]
CC[C@H](C)[C@@H]1NC(=O)CNC(=O)CCCCCNC(=O)[C@H](CC(=O)O)NC(=O)[C@@H]2CCCN2C(=O)[C@H]([C@@H](C)CC)NC(=O)[C@H]2NC(=O)[C@H]([C@@H](C)CC)NC(=O)[C@@H]3CCCN3C(=O)[C@@H]3CCCN3C(=O)[C@H](CC(C)(C)C)NC(=O)[C@H](CO)NC(=O)[C@H](CCCNC(=N)N)NC(=O)[C@H](CO)NC(=O)[C@H](CSSC2(C)C)NC1=O [Example 28] (cyclo([Ahx]GICSRS[tBuAla]PPI[Pen]IPD); disulfide 4-12) | 79 | 16 | 19 | 29 | – | –
CC[C@H](C)[C@@H]1NC(=O)[C@@H]2CCCN2C(=O)[C@@H]2CCCN2C(=O)[C@H](CC(C)(C)C)NC(=O)[C@H](CO)NC(=O)[C@H](CCCNC(=N)N)NC(=O)[C@H](CO)NC(=O)[C@@H]2CSSC(C)(C)[C@H](NC1=O)C(=O)N[C@@H]([C@@H](C)CC)C(=O)N1CCC[C@H]1C(=O)NCCCCCC(=O)NC[C@H]1CC[C@@H](CC1)C(=O)N[C@@H]([C@@H](C)CC)C(=O)N2 [Example 59, N-{3-[(1R,4S,7S,13S,19S,22S,25S,28S,31R,34S,37S,40S,51S,57S)-4,34,57-tri[(2S)-butan-2-yl]-19-(2,2-dimethylpropyl)-22,28-bis(hydroxymethyl)-60,60-dimethyl-3,6,12,18,21,24,27,30,33,36,43,50,56,59-tetradecaoxo-61,62-dithia-2,5,11,17,20,23,26,29,32,35,42,49,55,58-tetradecaazahexacyclo[29.28.4.2^37,400.0^7,110.0^13,170.0^51,55]pentahexacontan-25-yl]propyl}guanidine] | 48.6 | – | 11 | 5.7 | – | 177
CC[C@H](C)[C@@H]1NC(=O)[C@@H]2CCCN2C(=O)[C@H]([C@@H](C)CC)NC(=O)[C@H]2NC(=O)[C@H]([C@@H](C)CC)NC(=O)[C@@H]3CCCN3C(=O)[C@@H]3CCCN3C(=O)[C@H](CC(C)(C)C)NC(=O)[C@H](CO)NC(=O)[C@H](CCCNC(=N)N)NC(=O)[C@H](CO)NC(=O)[C@H](CSSC2(C)C)NC1=O [Example 88, N-{3-[(6S,9S,12S,15S,18R,21S,23aS,29S,32R,35S,37aS,42aS)-21,29,35-tri[(2S)-butan-2-yl]-6-(2,2-dimethylpropyl)-9,15-bis(hydroxymethyl)-43,43-dimethyl-5,8,11,14,17,20,23,28,31,34,37,42-dodecaoxotetracontahydro-1H,5H-18,32-(methanodithiomethano)tripyrrolo[1,2-a:1′,2′-d:1″,2″-p][1,4,7,10,13,16,19,22,25,28,31,34]-dodecaazacyclohexatriacontin-12-yl]propyl}guanidine hydrogen chloride] (cyclo(CSRS[tBuAla]PPI[Pen]IPI); disulfide 1-9) | – | – | 1000 | 1000 | 50000 | –
CC[C@H](C)[C@@H]1NC(=O)NC(=O)[C@H](CCCN)NC(=O)[C@@H]2CCCN2C(=O)[C@H]([C@@H](C)CC)NC(=O)[C@H]2NC(=O)[C@H]([C@@H](C)CC)NC(=O)[C@@H]3CCCN3C(=O)[C@@H]3CCCN3C(=O)[C@H](CC(C)(C)C)NC(=O)[C@H](CO)NC(=O)[C@H](CCCNC(=N)NC)NC(=O)[C@H](CO)NC(=O)[C@H](CSSC2(C)C)NC1=O [Example 96] (cyclo([Arg(Me)]S[tBuAla]PPI[Pen]IP[X5]ICS); disulfide 7-12) | – | – | 23 | 400 | 103 | –
CC[C@H](C)[C@@H]1NC(=O)[C@H](CN)NC(=O)[C@H](CN)NC(=O)[C@@H]2CCCN2C(=O)[C@H]([C@@H](C)CC)NC(=O)[C@H]2NC(=O)[C@H]([C@@H](C)CC)NC(=O)[C@@H]3CCCN3C(=O)[C@@H]3CCCN3C(=O)[C@H](CC(C)(C)C)NC(=O)[C@H](CO)NC(=O)[C@H](CCCNC(=N)N)NC(=O)[C@H](CO)NC(=O)[C@H](CSSC2(C)C)NC1=O [Example 97] | – | – | 5 | 760 | 56.4 | –
CC[C@H](C)[C@@H]1NC(=O)[C@@H]2CSSC[C@H](NC(=O)[C@H](Cc3ccc(O)cc3)NC(=O)CNC(=O)[C@H](CC(=O)O)NC(=O)[C@@H]3CCCN3C1=O)C(=O)N[C@@H](CO)C(=O)N[C@@H](CCCNC(=N)N)C(=O)N[C@@H](CO)C(=O)N[C@@H](Cc1ccc(O)cc1)C(=O)N1CCC[C@H]1C(=O)N1CCC[C@H]1C(=O)N[C@@H](C(C)C)C(=O)N2 [Ref. No 8, reference compound] (cyclo(CIPDGYCSRSYPPV); disulfide 1-7) | 1000 | 126 | 8130 | – | – | –

Second part, led by results:

IC50 (rat MASP1) [nM] | IC50 (rat MASP2) [nM] | IC50 (human MASP1) [nM] | IC50 (human MASP2) [nM] | IC50 [1, 2] [nM] | SMILES | IC50 ([1]; Average IC50, read-out: Human C3-[…] IC50) [nM]
– | – | 1000 | 1000 | 3130 | CC[C@H](C)[C@@H]1NC(=O)[C@@H](N)CNC(=O)[C@@H]2CCCN2C(=O)[C@H]([C@@H](C)CC)NC(=O)[C@H]2NC(=O)[C@H]([C@@H](C)CC)NC(=O)[C@@H]3C[C@@H]4CCCC[C@@H]4N3C(=O)[C@@H]3CCCN3C(=O)[C@H](CC(C)C)NC(=O)[C@H](CO)NC(=O)[C@H](CCCNC(=N)N)NC(=O)[C@H](CO)NC(=O)[C@H](CSSC2(C)C)NC1=O [Example 85] (H-[Dap]ICSRSLP[Oic]I[Pen]IP; lactam 1-C; disulfide 3-11) | –
– | – | 27 | 1000 | 46.3 | CC[C@H](C)[C@@H]1NC(=O)[C@H](CN)NC(=O)[C@@H](N)CNC(=O)[C@@H]2CCCN2C(=O)[C@H]([C@@H](C)CC)NC(=O)[C@H]2NC(=O)[C@H]([C@@H](C)CC)NC(=O)[C@@H]3C[C@@H]4CCCC[C@@H]4N3C(=O)[C@@H]3CCCN3C(=O)[C@H](CC(C)C)NC(=O)[C@H](CO)NC(=O)[C@H](CCCNC(=N)N)NC(=O)[C@H](CO)NC(=O)[C@H](CSSC2(C)C)NC1=O [Example 86] (H-[Dap][Dap]ICSRSLP[Oic]I[Pen]IP; lactam 1-C; disulfide 4-12) | –
– | – | 46 | 700 | 78.6 | CC[C@H](C)[C@@H]1NC(=O)[C@H](CN)NC(=O)[C@@H]2CCCN2C(=O)[C@H]([C@@H](C)CC)NC(=O)[C@H]2NC(=O)[C@H]([C@@H](C)CC)NC(=O)[C@@H]3C[C@@H]4CCCC[C@@H]4N3C(=O)[C@H]3CCCN3C(=O)[C@H](CC(C)C)NC(=O)[C@H](CO)NC(=O)[C@H](CCCNC(=N)N)NC(=O)[C@H](CO)NC(=O)[C@H](CSSC2(C)C)NC1=O [Example 87] (cyclo(CSRSL[dP][Oic]I[Pen]IP[Dap]I); disulfide 1-9) | –

From patent US20240010684A1, “MASP INHIBITORY COMPOUNDS AND USES THEREOF” (BAYER AKTIENGESELLSCHAFT, priority 2020, published 2024)
